Test results as given in ChEMBL document CHEMBL6078681, “Discovery and Optimization of Dihydroquinolin-2(1H)-ones as Novel Highly Selective and Orally Bioavailable Phosphodiesterase 5 Inhibitors for the Treatment of Pulmonary Arterial Hypertension” (J Med Chem, 2024).
The source made the active and inactive calls. The rule behind the calls is not given here.

Columns and labels:
Cytochrome P450 2C19 = Cytochrome P450 2C19 (Homo sapiens, UniProt P33261); assay: Inhibition of CYP2C19 (unknown origin); assay type: ADME
Chain of Cytochrome P450 2C19 (P33261 whole entry): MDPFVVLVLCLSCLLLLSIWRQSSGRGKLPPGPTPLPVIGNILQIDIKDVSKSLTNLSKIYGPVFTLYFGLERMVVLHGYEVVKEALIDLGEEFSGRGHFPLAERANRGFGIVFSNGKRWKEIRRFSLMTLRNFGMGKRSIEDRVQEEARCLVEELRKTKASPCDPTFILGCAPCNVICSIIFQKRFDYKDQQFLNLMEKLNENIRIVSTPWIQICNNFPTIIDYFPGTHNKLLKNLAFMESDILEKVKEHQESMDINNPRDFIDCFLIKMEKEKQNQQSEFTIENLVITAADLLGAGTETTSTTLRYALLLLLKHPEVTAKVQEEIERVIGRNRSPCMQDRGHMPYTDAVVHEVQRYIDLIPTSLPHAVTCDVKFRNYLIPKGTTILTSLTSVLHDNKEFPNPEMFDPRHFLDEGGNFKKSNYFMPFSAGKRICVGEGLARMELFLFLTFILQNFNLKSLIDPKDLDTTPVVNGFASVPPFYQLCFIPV

[1] = AUC (0 to infinity) in Sprague-Dawley rat at 2 mg/kg, iv measured for 5 to 1440 mins by LC-MS/MS analysis; assay type: ADME, organism-based; settings: in vivo, time 5-1440 min
Cytochrome P450 2C9 = Cytochrome P450 2C9 (Homo sapiens, UniProt P11712); assay: Inhibition of CYP2C9 (unknown origin); assay type: ADME
Chain of Cytochrome P450 2C9 (P11712 whole entry): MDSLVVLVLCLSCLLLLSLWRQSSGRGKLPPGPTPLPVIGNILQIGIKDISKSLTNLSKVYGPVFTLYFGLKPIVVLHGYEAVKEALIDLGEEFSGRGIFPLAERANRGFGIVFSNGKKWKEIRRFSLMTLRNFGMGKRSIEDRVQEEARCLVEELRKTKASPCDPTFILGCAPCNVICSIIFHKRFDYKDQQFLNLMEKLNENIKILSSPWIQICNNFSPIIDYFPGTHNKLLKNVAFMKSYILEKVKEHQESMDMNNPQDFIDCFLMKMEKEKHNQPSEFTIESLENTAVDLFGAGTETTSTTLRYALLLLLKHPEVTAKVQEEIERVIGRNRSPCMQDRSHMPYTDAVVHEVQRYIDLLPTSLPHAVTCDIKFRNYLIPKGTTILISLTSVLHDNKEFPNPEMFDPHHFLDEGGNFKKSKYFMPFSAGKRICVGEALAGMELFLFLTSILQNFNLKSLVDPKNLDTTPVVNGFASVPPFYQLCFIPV

[2] = MRT (0 to infinity) in Sprague-Dawley rat at 2 mg/kg, iv measured for 5 to 1440 mins by LC-MS/MS analysis; assay type: ADME, organism-based; settings: in vivo, time 5-1440 min
Rattus norvegicus [3] = assay: Anti-Pulmonary arterial hypertension in mono-crotaline-treated Sprague-Dawley rat model assessed as decrease in mPAP level at 5 mg/kg for 21 days; assay type: functional, organism-based; settings: time 21.0 day
[4] = Cmax in Sprague-Dawley rat at 10 mg/kg, po measured for 5 to 1440 mins by LC-MS/MS analysis; assay type: ADME, organism-based; settings: in vivo, time 5-1440 min
[5] = biological target: High affinity cAMP-specific and IBMX-insensitive 3',5'-cyclic phosphodiesterase 8A (Homo sapiens, UniProt O60658); assay: Inhibition of PDE8A1 (unknown origin) using FAM-cAMP as substrate incubated for 1 hr by fluorescence polarization assay
Chain of High affinity cAMP-specific and IBMX-insensitive 3',5'-cyclic phosphodiesterase 8A (O60658 whole entry): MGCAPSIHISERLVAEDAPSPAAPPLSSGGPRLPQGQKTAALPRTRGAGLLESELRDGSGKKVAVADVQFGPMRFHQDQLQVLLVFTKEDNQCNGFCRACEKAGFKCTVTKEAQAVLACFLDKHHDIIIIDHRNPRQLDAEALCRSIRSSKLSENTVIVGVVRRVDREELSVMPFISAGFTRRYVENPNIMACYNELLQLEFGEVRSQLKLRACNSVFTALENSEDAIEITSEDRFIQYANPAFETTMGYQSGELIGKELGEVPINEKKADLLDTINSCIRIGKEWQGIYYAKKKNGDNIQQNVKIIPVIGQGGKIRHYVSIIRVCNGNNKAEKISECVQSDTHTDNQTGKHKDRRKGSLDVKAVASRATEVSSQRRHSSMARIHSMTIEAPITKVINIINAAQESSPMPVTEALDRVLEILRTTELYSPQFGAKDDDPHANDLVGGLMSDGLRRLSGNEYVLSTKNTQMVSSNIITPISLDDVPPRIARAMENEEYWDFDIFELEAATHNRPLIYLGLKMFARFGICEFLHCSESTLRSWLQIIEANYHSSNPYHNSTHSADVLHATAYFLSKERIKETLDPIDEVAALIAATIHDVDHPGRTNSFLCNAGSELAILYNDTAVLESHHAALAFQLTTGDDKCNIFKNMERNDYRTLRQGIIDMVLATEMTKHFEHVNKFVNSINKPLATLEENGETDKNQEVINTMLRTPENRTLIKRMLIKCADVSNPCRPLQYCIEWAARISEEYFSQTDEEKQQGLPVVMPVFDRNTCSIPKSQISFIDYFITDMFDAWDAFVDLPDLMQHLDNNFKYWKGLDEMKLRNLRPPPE

[6] = biological target: cAMP and cAMP-inhibited cGMP 3',5'-cyclic phosphodiesterase 10A (Homo sapiens, UniProt Q9Y233); assay: Inhibition of PDE10A2 (unknown origin) using FAM-cAMP as substrate incubated for 1 hr by fluorescence polarization assay
[7] = biological target: T1, cGMP-specific 3',5'-cyclic phosphodiesterase (Homo sapiens, UniProt O76074); assay: Inhibition of PDE5A (unknown origin) using […] as substrate incubated for 1 hr by fluorescence polarization assay
Cytochrome P450 1A2 = biological target: T2, Cytochrome P450 1A2 (Homo sapiens, UniProt P05177); assay: Inhibition of CYP1A2 (unknown origin); assay type: ADME
T2 sequence (P05177 whole entry): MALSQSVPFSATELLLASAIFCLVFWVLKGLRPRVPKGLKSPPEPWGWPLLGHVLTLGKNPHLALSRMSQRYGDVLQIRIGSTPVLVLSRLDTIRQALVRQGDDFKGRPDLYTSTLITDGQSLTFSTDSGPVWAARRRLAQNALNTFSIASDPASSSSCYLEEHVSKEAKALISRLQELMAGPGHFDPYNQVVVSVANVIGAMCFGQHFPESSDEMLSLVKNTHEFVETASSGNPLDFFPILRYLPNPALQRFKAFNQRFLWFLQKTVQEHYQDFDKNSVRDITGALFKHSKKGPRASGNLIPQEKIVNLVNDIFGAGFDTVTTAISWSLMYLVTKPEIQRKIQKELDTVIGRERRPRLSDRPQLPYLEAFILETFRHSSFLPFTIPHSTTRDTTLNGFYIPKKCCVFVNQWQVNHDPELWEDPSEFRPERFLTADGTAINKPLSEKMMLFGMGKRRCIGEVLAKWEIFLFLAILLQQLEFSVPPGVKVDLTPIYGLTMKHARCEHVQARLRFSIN

[8] = Tmax in Sprague-Dawley rat at 10 mg/kg, po measured for 5 to 1440 mins by LC-MS/MS analysis; assay type: ADME, organism-based; settings: in vivo, time 5-1440 min
[9] = AUC (0 to infinity) in Sprague-Dawley rat at 10 mg/kg, po measured for 5 to 1440 mins by LC-MS/MS analysis; assay type: ADME, organism-based; settings: in vivo, time 5-1440 min
[10] = biological target: 3',5'-cyclic-AMP phosphodiesterase 4D (Homo sapiens, UniProt Q08499); assay: Inhibition of PDE4D2 (unknown origin) using FAM-cAMP as substrate incubated for 1 hr by fluorescence polarization assay
[11] = biological target: cGMP-dependent 3',5'-cyclic phosphodiesterase (Homo sapiens, UniProt O00408); assay: Inhibition of PDE2A (unknown origin) using FAM-cAMP as substrate incubated for 1 hr by fluorescence polarization assay
[12] = biological target: Dual 3',5'-cyclic-AMP and -GMP phosphodiesterase 11A (Homo sapiens, UniProt Q9HCR9); assay: Inhibition of PDE11A (unknown origin) using FAM-cAMP as substrate incubated for 1 hr by fluorescence polarization assay
[13] = Half life in Sprague-Dawley rat at 10 mg/kg, po measured for 5 to 1440 mins by LC-MS/MS analysis; assay type: ADME, organism-based; settings: in vivo, time 5-1440 min
[14] = Half life in rat liver microsomes; assay type: ADME, Microsome
[15] = AUC (0 to t) in Sprague-Dawley rat at 10 mg/kg, po measured for 5 to 1440 mins by LC-MS/MS analysis; assay type: ADME, organism-based; settings: in vivo, time 5-1440 min
[16] = Half life in Sprague-Dawley rat at 2 mg/kg, iv measured for 5 to 1440 mins by LC-MS/MS analysis; assay type: ADME, organism-based; settings: in vivo, time 5-1440 min
[17] = Toxicity in mono-crotaline-treated Sprague-Dawley rat model of Pulmonary arterial hypertension assessed as body weight change at 2.5 to 5 mg/kg for 21 days; assay type: organism-based; settings: in vivo, 504 h, dose 2.5-5 mg/kg, time 21 day
[18] = Tmax in Sprague-Dawley rat at 2 mg/kg, iv measured for 5 to 1440 mins by LC-MS/MS analysis; assay type: ADME, organism-based; settings: in vivo, time 5-1440 min
Rattus norvegicus [19] = assay: Anti-Pulmonary arterial hypertension in mono-crotaline-treated Sprague-Dawley rat model assessed as decrease in mPAP level at 2.5 mg/kg for 21 days; assay type: functional, organism-based; settings: time 21.0 day
[20] = biological target: High affinity cGMP-specific 3',5'-cyclic phosphodiesterase 9A (Homo sapiens, UniProt O76083); assay: Inhibition of PDE9A2 (unknown origin) using […] as substrate incubated for 1 hr by fluorescence polarization assay
Rattus norvegicus [21] = assay: Anti-Pulmonary arterial hypertension in mono-crotaline-treated Sprague-Dawley rat model assessed as decrease in RVHI level at 2.5 to 5 mg/kg for 21 days; assay type: functional, organism-based; settings: dose 2.5-5 mg/kg, time 21.0 day
[22] = Oral bioavailability in Sprague-Dawley rat at 10 mg/kg measured for 5 to 1440 mins by LC-MS/MS analysis; assay type: ADME, organism-based; settings: in vivo, time 5-1440 min
[23] = Clearance in Sprague-Dawley rat at 2 mg/kg, iv measured for 5 to 1440 mins by LC-MS/MS analysis; assay type: ADME, organism-based; settings: in vivo, time 5-1440 min
[24] = biological target: Voltage-gated inwardly rectifying potassium channel KCNH2 (Homo sapiens, UniProt Q12809); assay: Inhibition of hERG; assay type: toxicity
Chain of Voltage-gated inwardly rectifying potassium channel KCNH2 (Q12809 whole entry): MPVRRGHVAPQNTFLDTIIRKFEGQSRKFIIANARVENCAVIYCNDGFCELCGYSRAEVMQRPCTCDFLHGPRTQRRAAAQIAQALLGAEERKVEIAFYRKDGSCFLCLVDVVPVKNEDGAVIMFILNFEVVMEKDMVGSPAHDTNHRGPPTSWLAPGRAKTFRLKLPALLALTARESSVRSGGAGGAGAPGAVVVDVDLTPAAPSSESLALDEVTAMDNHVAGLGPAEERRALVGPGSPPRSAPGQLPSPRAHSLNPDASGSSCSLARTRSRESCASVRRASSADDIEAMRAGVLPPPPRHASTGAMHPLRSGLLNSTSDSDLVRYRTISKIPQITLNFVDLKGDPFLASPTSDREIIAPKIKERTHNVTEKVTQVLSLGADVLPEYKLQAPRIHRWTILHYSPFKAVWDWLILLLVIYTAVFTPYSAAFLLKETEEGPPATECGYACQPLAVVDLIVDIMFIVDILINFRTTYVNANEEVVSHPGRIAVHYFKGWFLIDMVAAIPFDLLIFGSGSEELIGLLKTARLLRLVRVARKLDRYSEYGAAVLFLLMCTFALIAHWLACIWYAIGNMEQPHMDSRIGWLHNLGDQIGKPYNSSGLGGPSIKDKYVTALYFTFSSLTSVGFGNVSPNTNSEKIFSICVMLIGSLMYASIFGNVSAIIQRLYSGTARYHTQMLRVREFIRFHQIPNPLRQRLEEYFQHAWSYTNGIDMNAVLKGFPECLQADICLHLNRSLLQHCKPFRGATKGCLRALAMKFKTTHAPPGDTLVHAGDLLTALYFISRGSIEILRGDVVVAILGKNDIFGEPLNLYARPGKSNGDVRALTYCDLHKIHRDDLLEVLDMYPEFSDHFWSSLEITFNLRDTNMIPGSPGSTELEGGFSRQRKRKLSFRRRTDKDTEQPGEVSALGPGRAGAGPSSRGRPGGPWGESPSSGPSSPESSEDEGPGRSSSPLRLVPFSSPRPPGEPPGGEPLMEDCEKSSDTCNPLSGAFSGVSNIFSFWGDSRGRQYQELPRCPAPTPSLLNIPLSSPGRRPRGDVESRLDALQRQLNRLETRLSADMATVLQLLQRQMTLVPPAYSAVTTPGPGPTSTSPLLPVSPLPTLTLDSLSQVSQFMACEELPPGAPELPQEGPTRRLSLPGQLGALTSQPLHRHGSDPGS

[25] = MRT (0 to t) in Sprague-Dawley rat at 10 mg/kg, po measured for 5 to 1440 mins by LC-MS/MS analysis; assay type: ADME, organism-based; settings: in vivo, time 5-1440 min
[26] = Clearance in Sprague-Dawley rat at 10 mg/kg, po measured for 5 to 1440 mins by LC-MS/MS analysis; assay type: ADME, organism-based; settings: in vivo, time 5-1440 min
Cytochrome P450 3A4 = Cytochrome P450 3A4 (Homo sapiens, UniProt P08684); assay: Inhibition of CYP3A4 (unknown origin); assay type: ADME
Chain of Cytochrome P450 3A4 (P08684 whole entry): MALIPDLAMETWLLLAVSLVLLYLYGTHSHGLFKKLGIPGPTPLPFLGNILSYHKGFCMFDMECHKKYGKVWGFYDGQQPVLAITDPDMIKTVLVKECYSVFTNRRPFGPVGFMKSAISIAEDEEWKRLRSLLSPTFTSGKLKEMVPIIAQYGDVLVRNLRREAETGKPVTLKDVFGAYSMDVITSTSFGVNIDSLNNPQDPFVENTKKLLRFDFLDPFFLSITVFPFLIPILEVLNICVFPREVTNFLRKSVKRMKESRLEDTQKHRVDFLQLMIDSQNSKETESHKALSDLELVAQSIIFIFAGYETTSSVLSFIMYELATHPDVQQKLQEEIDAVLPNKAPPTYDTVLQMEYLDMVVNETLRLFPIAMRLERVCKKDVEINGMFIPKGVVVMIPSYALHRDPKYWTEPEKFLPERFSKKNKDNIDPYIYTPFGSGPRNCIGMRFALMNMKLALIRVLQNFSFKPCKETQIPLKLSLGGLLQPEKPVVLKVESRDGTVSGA

[27] = Acute toxicity in mouse assessed as drug tolerance at >1.5 g/kg, po; settings: in vivo, 1500 mg/kg
[28] = AUC (0 to t) in Sprague-Dawley rat at 2 mg/kg, iv measured for 5 to 1440 mins by LC-MS/MS analysis; assay type: ADME, organism-based; settings: in vivo, time 5-1440 min
[29] = biological target: Dual specificity calcium/calmodulin-dependent 3',5'-cyclic nucleotide phosphodiesterase 1C (Homo sapiens, UniProt Q14123); assay: Inhibition of PDE1C (unknown origin) using FAM-cAMP as substrate incubated for 1 hr by fluorescence polarization assay
Chain of Dual specificity calcium/calmodulin-dependent 3',5'-cyclic nucleotide phosphodiesterase 1C (Q14123 whole entry): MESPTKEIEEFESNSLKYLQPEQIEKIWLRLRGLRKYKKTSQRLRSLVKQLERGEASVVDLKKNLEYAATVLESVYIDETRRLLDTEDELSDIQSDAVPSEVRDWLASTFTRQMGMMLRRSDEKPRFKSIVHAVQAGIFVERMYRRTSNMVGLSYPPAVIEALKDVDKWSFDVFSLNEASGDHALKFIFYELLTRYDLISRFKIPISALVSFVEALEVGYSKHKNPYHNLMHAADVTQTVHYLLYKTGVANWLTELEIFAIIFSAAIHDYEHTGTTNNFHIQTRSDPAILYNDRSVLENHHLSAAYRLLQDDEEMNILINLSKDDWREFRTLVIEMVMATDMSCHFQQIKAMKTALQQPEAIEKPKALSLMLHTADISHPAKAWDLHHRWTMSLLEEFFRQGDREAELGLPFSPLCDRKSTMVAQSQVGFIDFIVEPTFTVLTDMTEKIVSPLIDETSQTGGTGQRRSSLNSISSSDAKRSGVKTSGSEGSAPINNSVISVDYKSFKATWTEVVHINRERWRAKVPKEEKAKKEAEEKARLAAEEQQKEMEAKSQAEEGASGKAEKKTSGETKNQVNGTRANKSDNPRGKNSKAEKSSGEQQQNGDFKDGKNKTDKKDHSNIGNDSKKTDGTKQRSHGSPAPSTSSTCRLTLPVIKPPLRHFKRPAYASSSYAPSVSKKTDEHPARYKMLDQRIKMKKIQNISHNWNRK

Rattus norvegicus [30] = assay: Anti-Pulmonary arterial hypertension in mono-crotaline-treated Sprague-Dawley rat model assessed as decrease in pulmonary arteriole wall thickness at 2.5 to 5 mg/kg for 21 days by H and E staining based analysis; assay type: functional, organism-based; settings: dose 2.5-5 mg/kg, time 21.0 day
[31] = Volume of distribution in Sprague-Dawley rat at 10 mg/kg, po measured for 5 to 1440 mins by LC-MS/MS analysis; assay type: ADME, organism-based; settings: in vivo, time 5-1440 min
[32] = biological target: Cone cGMP-specific 3',5'-cyclic phosphodiesterase subunit alpha' (Homo sapiens, UniProt P51160); assay: Inhibition of PDE6C (unknown origin) using […] as substrate incubated for 1 hr by fluorescence polarization assay
Cytochrome P450 2D6 = Cytochrome P450 2D6 (Homo sapiens, UniProt P10635); assay: Inhibition of CYP2D6 (unknown origin); assay type: ADME
[33] = Apparent volume of distribution in Sprague-Dawley rat at 2 mg/kg, iv measured for 5 to 1440 mins by LC-MS/MS analysis; assay type: ADME, organism-based; settings: in vivo, time 5-1440 min, read-out: Vz
[34] = MRT (0 to infinity) in Sprague-Dawley rat at 10 mg/kg, po measured for 5 to 1440 mins by LC-MS/MS analysis; assay type: ADME, organism-based; settings: in vivo, time 5-1440 min
[35] = biological target: High affinity 3',5'-cyclic-AMP phosphodiesterase 7A (Homo sapiens, UniProt Q13946); assay: Inhibition of PDE7A (unknown origin) using FAM-cAMP as substrate incubated for 1 hr by fluorescence polarization assay
Chain of High affinity 3',5'-cyclic-AMP phosphodiesterase 7A (Q13946 whole entry): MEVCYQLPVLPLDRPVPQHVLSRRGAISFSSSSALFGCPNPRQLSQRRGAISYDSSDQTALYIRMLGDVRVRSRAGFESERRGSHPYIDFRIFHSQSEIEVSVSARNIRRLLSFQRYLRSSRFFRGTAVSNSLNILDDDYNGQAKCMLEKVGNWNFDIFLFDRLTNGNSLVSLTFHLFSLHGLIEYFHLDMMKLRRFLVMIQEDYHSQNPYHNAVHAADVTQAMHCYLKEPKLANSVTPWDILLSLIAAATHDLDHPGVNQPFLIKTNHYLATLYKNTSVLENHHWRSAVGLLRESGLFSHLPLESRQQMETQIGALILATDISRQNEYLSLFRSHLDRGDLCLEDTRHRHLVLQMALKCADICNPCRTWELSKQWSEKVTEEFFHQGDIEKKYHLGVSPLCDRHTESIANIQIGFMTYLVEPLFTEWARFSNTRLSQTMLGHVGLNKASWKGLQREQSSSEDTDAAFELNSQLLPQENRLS

[36] = biological target: cGMP-inhibited 3',5'-cyclic phosphodiesterase 3A (Homo sapiens, UniProt Q14432); assay: Inhibition of PDE3A (unknown origin) using FAM-cAMP as substrate incubated for 1 hr by fluorescence polarization assay
[37] = Cmax in Sprague-Dawley rat at 2 mg/kg, iv measured for 5 to 1440 mins by LC-MS/MS analysis; assay type: ADME, organism-based; settings: in vivo, time 5-1440 min
[38] = MRT (0 to t) in Sprague-Dawley rat at 2 mg/kg, iv measured for 5 to 1440 mins by LC-MS/MS analysis; assay type: ADME, organism-based; settings: in vivo, time 5-1440 min
[39] = biological target: T1, cGMP-specific 3',5'-cyclic phosphodiesterase; assay: Inhibition of PDE5A (unknown origin) using […] as substrate at 100 nM incubated for 1 hr by fluorescence polarization assay relative to control

SMILES: COc1ccc(-c2c(C#N)c(=O)n(Cc3ccccc3)c3c(N[C@H](C)c4ccccn4)cccc23)cc1
- IC50 (Cytochrome P450 2C19): 4.63 µM
- AUC(0-inf) [1]: 0.399 µg·h/mL
- IC50 (Cytochrome P450 2C9): 9.76 µM
- MRT inf [2]: 0.76 h
- Activity (Rattus norvegicus [3]): Active; The Effect Was Marginally Superior To That Of Sildenafil
- Cmax [4]: 0.0584 µg/mL
- IC50 [5]: > 100 µM
- IC50 [6]: 21.2 µM
- IC50 [7]: 0.003 µM
- IC50 (Cytochrome P450 1A2): > 50 µM
- Tmax [8]: 4 h
- AUC(0-inf) [9]: 0.341 µg·h/mL
- IC50 [10]: 53.3 µM
- IC50 [11]: 3.38 µM
- IC50 [12]: > 100 µM
- half-life [13]: 2.79 h
- half-life [14]: 4.41 min
- AUC(0-t) [15]: 0.339 µg·h/mL
- half-life [16]: 2.25 h
- Activity [17]: Non-toxic
- Tmax [18]: 4.98 min
- Activity (Rattus norvegicus [19]): inactive
- IC50 [20]: > 100 µM
- Activity (Rattus norvegicus [21]): Active
- bioavailability [22]: 16.8%
- clearance [23]: 5 L/h/kg
- IC50 [24]: > 30 µM
- MRT last [25]: 6.3 h
- CL/F [26]: 31.5 L/h/kg
- IC50 (Cytochrome P450 3A4): > 50 µM
- Activity [27]: Non-toxic
- AUC(0-t) [28]: 0.399 µg·h/mL
- IC50 [29]: 10.5 µM
- Activity (Rattus norvegicus [30]): Active
- Vz [31]: 126.6 L/kg
- IC50 [32]: 0.02 µM
- IC50 (Cytochrome P450 2D6): > 50 µM
- Vd [33]: 16.3 L/kg
- MRT inf [34]: 6.4 h
- IC50 [35]: 25.7 µM
- IC50 [36]: > 100 µM
- Cmax [37]: 0.985 µg/mL
- MRT last [38]: 0.75 h

SMILES: Cc1ccc(-c2c(C#N)c(=O)n(Cc3ccc4c(c3)OCO4)c3c(NC(C)c4ccccn4)cccc23)cc1 (stereo unspecified)
- IC50 [7]: 0.198 µM

SMILES: Cc1ccc(-c2c(C#N)c(=O)n(Cc3ccccc3)c3cc(NC(C)c4ccccn4)ccc23)cc1 (stereo unspecified)
- IC50 [7]: 0.578 µM

SMILES: COc1ccc(-c2c(C#N)c(=O)n(Cc3ccccc3)c3c(NC(C)c4ccccn4)cccc23)cc1 (stereo unspecified)
- IC50 [7]: 0.005 µM

SMILES: Cc1ccc(-c2c(C#N)c(=O)n(Cc3ccc(F)cc3)c3c(NC(C)c4ccccn4)cccc23)cc1 (stereo unspecified)
- inhibition [39]: 5%

SMILES: Cc1ccc(-c2c(C#N)c(=O)n(Cc3ccccc3)c3c(NCc4ccccc4)cccc23)cc1
- IC50 [7]: 0.02 µM

SMILES: CC(C)c1c(C#N)c(=O)n(Cc2ccccc2)c2c(NC(C)c3ccccn3)cccc12 (stereo unspecified)
- IC50 [7]: 0.039 µM

SMILES: Cc1ccc(-c2c(C#N)c(=O)n(CC3CCCC3)c3c(NC(C)c4ccccn4)cccc23)cc1 (stereo unspecified)
- IC50 [7]: 0.055 µM

SMILES: Cc1ccc(-c2c(C#N)c(=O)n(Cc3ccccc3)c3c(NC(C)c4ccccn4)cccc23)cc1 (stereo unspecified)
- IC50 [7]: 0.01 µM
